A word on the LD50: it is the dose at which mortality reaches 50%.

Here are results for 3 compounds from patent publication US12239629B2 (priority 2020, dated 2025).

Data set [1] deals with SARS-CoV2. The data set is described as follows: In-vitro experiments, time of drug addition relative to infection. In kind it is cell-based. The conditions noted are these: added between 3 hours pre-infection and 3 hours after infection. As to the method:
Less inhibition was detected when the drug was added after 12 hours post-infection (Our observation was consistent with the report by Agostini et al regarding GS-5734 (remdesivir) (Agostini M L, Andres E L, Sims A C, Graham R L, Sheahan T P, Lu X, Smith E C, Case J B, Feng J Y, Jordan R, Ray AS, Cihlar T, Siegel D, Mackman R L, Clarke M O, Baric R S, Denison M R. 2018. Coronavirus susceptibility to the antiviral remdesivir (GS-5734) is mediated by the viral polymerase and the proofreading exoribonuclease. mBio 9:e00221-18. https://doi.org/10.1128/mBio.00221-18.).
(§1) In carrying out the in vitro experiments, vero E6 cells (an African green monkey kidney cell line) were infected with SARS-CoV2 at a multiplicity of infection of 0.5 for 1 hour. The cells were washed with PBS and then incubated in OPTI-MEM (Invitrogen) medium with or without various concentrations of the following drug candidates: Artemether (from BiopharmaRx) Hydroxychloroquine (from Sigma Aldrich), Atazanavir (from Sigma Aldrich), and Efavirenz (from Sigma Aldrich), Fosamprenavir Calcium (from Sigma Aldrich), Saquinavir (from Sigma Aldrich) and Remdesivir (from AOBIOUS, INC., USA)

Data set [2] is described as follows: Peak Inhibitory Concentration (Threshold) after oral administration. The method, then: It is noted that the Peak Inhibitory Concentration (Threshold) of Artemether and Remdesivir were at 120 minutes after oral administration. The Peak Inhibitory Concentration (Threshold) of Lumefantrine was at 60 minutes after oral administration.
The subject of data set [3] is SARS-CoV2. Kind of data set: Drug added to Vero E6 cells immediately after SARS-CoV2 adsorption, indirect immunofluorescence after 24 hours. In kind it is cell-based. The method, then:
as §1
(§2) Immunofluorescence staining was performed with SARS-CoV2-specific hyperimmune mouse ascitic fluid (HMAF) followed by anti-mouse fluorescein-coupled antibody.
The antiviral properties of artemether on SARS-CoV2 after the initiation of infection were studied. Vero E6 cells were infected with the virus and fresh medium supplemented with various concentrations of artemether was added immediately after virus adsorption. Infected cells were incubated for an additional 24 hours, after which the presence of virus antigens was analyzed by indirect immunofluorescence analysis. When artemether was added after the initiation of infection, there was a dramatic dose dependent decrease in the number of virus antigen-positive cells. […] A half-maximal inhibitory effect was estimated to occur at 16.5±1.0 μM artemether. […] (FIG. 2).

The nature of data set [4]: Dissolution test of Artemether/Lumefantrine-Remdesivir soft gel capsule. In kind it is physicochemical. As to conditions: 0.1 N. HCl with 3% Benzalkonium Chloride. The source says:
The soft gel capsule of Artemether and Lumefantrine is comprised: Artemether 4 to 5% w/w, Lumefantrine 20-24% w/w, Remdesivir 18-20%, non-aqueous vehicle 15-20% w/w, preservative less than 1% w/w, viscosity imparting agent 15-20% w/w, suspending agent 1 to 5% w/w and emulsifying agent 1 to 3% w/w and a process to manufacture the said preparation comprising of the following steps as given in the above Patent. • (a) Preservatives and Solid Suspending Agents were milled and sifted. • (b) Non-aqueous vehicle, viscosity imparting agent and liquid suspending agents were filtered to remove the foreign particles • (c) Additional steps for mixing preservatives and suspending agents: • (i) Preservatives were dissolved in non-aqueous vehicle; • (ii) Emulsifying agents were warmed and/or melted and added into mixture in (i) above; • (iii) Viscosity imparting agent is added to mixture of (ii) above and the resultant mixture is stirred. • (iv) Suspending agent is added and mixed with the mixture in (iii) above; and • (v) The mixture of (a) above and (c) (iv) above was homogenized. • (d) The mixture in (v) above was the encapsulated in soft gelatin.
Drug dissolution testing is routinely used to provide critical in vitro drug release information for both quality control purposes to predict in vivo drug release profiles.
The media for dissolution test was 0.1 N. HCl with 3% Benzalkonium Chloride.

In data set [5] the test system is SARS-CoV2. Kind of data set: Drug pretreatment of Vero E6 cells prior to SARS-CoV2 infection, indirect immunofluorescence. The format is cell-based. The conditions noted are these: pretreatment 18-24 hours prior to virus infection. As to the method: as §1, §2
Experiments were carried out to determine the impact of artemether treatment on SARS-CoV2 infection. Permissive Vero E6 cells were pre-treated with various concentrations of artemether (0.1-50 μM) for 18-24 hours prior to virus infection. Cells were then infected with SARS-CoV2, and virus antigens were visualized by indirect immunofluorescence. For quantitative purposes, we counted the number of cells stained positive from three random locations on a slide. The average number of positively stained control cells was scored as 100% and was compared with the number of positive cells observed under various artemether concentrations. Pretreatment with 0.1, 1, 10, 20, 30, 40 and 50 μM artemether reduced infectivity by 4%, 12%, 32%, 45%, 63%, 92% and 100% respectively. Reproducible results were obtained from three independent experiments.

For data set [6] the following is noted: cited from earlier work.
A short description of data set [7]: Artemether via nasal delivery system in vivo. The conditions noted are these: administered locally via nasal delivery system in vivo.
For data set [8] the following is noted: in vivo; cited from earlier work.

`COC(=O)NC(C(=O)NN(Cc1ccc(-c2ccccn2)cc1)C[C@H](O)[C@H](Cc1ccccc1)NC(=O)[C@@H](NC(=O)OC)C(C)(C)C)C(C)(C)C` (stereo partly drawn) [Atazanavir, methyl N-[(1S)-1-{N′-[(2S,3S)-2-hydroxy-3-[(2S)-2-[(methoxycarbonyl)amino]-3,3-dimethylbutanamido]-4-phenylbutyl]-N′-{[4-(pyridin-yl)phenyl]methyl} hydrazinecarbonyl}-2.2-dimethylpropyl]carbamate]: the “inhibition by time of addition” value in data set [1] was “maximal inhibition”.
Consider “(1R.4S,5R.8S.9R, 10S, 12R, 13R)-10-methoxy-1,5,9-trimethyl-11,14,15,16-tetraoxatetracyclo[10.3. 1.04, 13.08, 13]hexadecane [Artemether]”, for which the “inhibition by time of addition” value in data set [1] is recorded as “maximal inhibition”. In addition, the “time of Peak Inhibitory Concentration (Threshold)” value in data set [2] came out at 120 min. The inhibition in data set [3] (40-100 μM concentrations, added after the initiation of infection) is 71-96%. In data set [3] (approximately 10 μM added immediately after virus adsorption, 24 hours), this compound registered a reduced the infection of 40%. Further, the IC50 in data set [3] (drug added immediately after virus adsorption, Vero E6 cells, estimated, read-out: half-maximal inhibitory effect) was 16.5 ± 1 µM. The “% Cumulative Drug Release” value in data set [4] (60 minute time frame) is recorded as 92.3%. In addition, the “% of Drug Release in a Dissolution Test” value in data set [4] (sample time 30 minute) amounted to 47.3%; in data set [4] (sample time 60 minute) it was 72.25%; in data set [4] (sample time 90 minute) it was 88.7%; in data set [4] (sample time 120 minute), 93.8%. Also, the reduced infectivity in data set [5] (0.1 μM) is listed as 4%; in data set [5] (1 μM), 12%; in data set [5] (10 μM), 32%; in data set [5] (20 μM), 45%; in data set [5] (30 μM) it was 63%; in data set [5] (40 μM) it was 92%. Moreover, the reduced infectivity in data set [5] (50 μM) is 100%. Further, the “solubility in water (words)” value in data set [6] is listed as “sparingly soluble”. In addition, in data set [7], the “absorption and bioavailability, nasal vs systemic administration” value was “adsorbed quickly with more bioavailability”.
For the compound Chitosan, the LD50 in data set [8] was more than 4000 mg/kg.
